Where a name gives a salt, the structure may show the parent alone.
How the values were obtained:
[1] = test system: transcriptional changes induced by ZIKV (MR766 strain) infection; assay: RNA-seq analysis of ZIKV infected hNPCs; type: cell-based, human; settings: 72 h post-inoculation, 25 μM HH or 15 μM AQ
[2] = test system: hNPCs; assay: hNPC viability, proliferation, apoptosis and identity; type: cell-based, human; settings: for ZIKV induced growth arrest or apoptosis of hNPCs: 72 h after ZIKV (MR766) infection, vs DMSO
Description: (A) Scheme of high content chemical screen. (B) Chemical structure of hit compounds. (C) Inhibitory curve and IC50 of HH or AQ on hNPCs (n=6). (D-H) Immunocytochemistry analysis (D), the quantification of the infection rate (E), the quantification of proliferation rate (F), the quantification of cell apoptosis rate (G) and the normalized cell viability (H) of hNPCs at 72 h after ZIKV (MR 766 strain) infection with or without drug treatment. Scale bars, 100 μm. The ZIKV infection rate is defined as the percentage of ZIKV E^+ cells. The proliferation rate is defined as the percentages of Ki67^+ cells. The cell apoptosis rate was defined as the percentage of cleaved-Caspase 3/CAS3^+ cells. The normalized cell viability was calculated by dividing the total cell number of each condition by the total cell number under mock infection conditions. (n=6). (I) qRT-PCR analysis to monitor the total ZIKV vRNA in the supernatant of hNPC cultures at 72 h after ZIKV infection with or without drug treatment. (J) Vero cell reinfection assay to monitor the ZIKV infectious particles in the supernatant of hNPC cultures with or without drug treatment. To perform the Vero cell reinfection assay, hNPCs at 72 h after ZIKV infection were washed three times and changed to drug free medium for an additional 24 h. Vero cells were infected with the supernatant collected from hNPCs for 2 h and changed to virus free medium for an additional 24 h. Vero cells were stained with antibody against ZIKV E and DAPI. Scale bars, 200 μm. (n=3). (K) Quantification of ZIKV infectious particles produced by ZIKV-infected hNPCs with or without compound treatment by the Vero cell reinfection assay. (L) Heatmap analysis of mock-infected hNPCs treated with DMSO (mock); mock infected hNPCs treated with 25 μM HH (HH), mock-infected hNPCs treated with 15 μM AQ (AQ), ZIKV (MR766 strain, MOI=0.125) infected hNPCs treated with DMSO (ZIKV+DMSO); ZIKV-infected hNPCs treated with 25 μM HH (ZIKV+HH), and ZIKV-infected hNPCs treated with 15 μM AQ (ZIKV+AQ). […] (M and N) Immunocytochemistry analysis (M) and quantification of the infection rate (N) of hNPCs at 72 h after ZIKV (PRVABC59 strain) infection with or without drug treatment (n=6). Scale bars, 100 μm. p values were calculated by one-way repeated measures ANOVA with a Bonferroni test for multiple comparisons. *p<0.05, **p<0.01 and ***p<0.001.
(A) Scheme to evaluate the elimination of ZIKV. At day 0, hNPCs were infected with ZIKV for 2 h. After removal of ZIKV infection medium, hNPCs were treated with drug candidates. At day 3, the culture medium was changed to fresh medium without compounds. The cells were maintained in drug-free culture until day 6 and used for immunohistochemistry and qRT-PCR. (B and C) Inhibitory curve and IC50 of HH calculated based on the infection rate (B) and normalized cell viability (C) (n=6). (D and E) Immunocytochemistry analysis (D) and the quantification of infection rate, cell apoptosis rate, and total cell number (E) of hNPCs on day 3 and day 6. Cells was fixed and stained with cleaved Caspase-3 (CAS3), ZIKV E and DAPI. Scale bars, 100 μm. (F) qRT-PCR analysis to monitor the total ZIKV vRNA in the supernatant of hNPC cultures on day 6. Scale bars, 200 μm. (n=3). (G) Vero cell reinfection assay to monitor the infective ZIKV vRNA in the supernatant of hNPC cultures at day 6 after ZIKV infection. Scale bars, 200 μm. (n=3). (H) Quantification of ZIKV infectious particles produced by ZIKV-infected hNPCs at day 6 by the Vero cell reinfection assay. (I) hNPCs with or without ZIKV infection treated with HH maintain hNPC marker expression and differentiation capacity. hNPCs with or without ZIKV MR766 infection were treated with 25 μM HH or DMSO for 3 days and then stained for SOX2, NESTIN and with DAPI. hNPCs with or without ZIKV infection and treated with HH or DMSO for 3 days were differentiated to cortical neurons. The cortical neurons were then fixed and stained for MAP2, TUJ1 and with DAPI. Scale bars, 100 μm. (n=3). […]

Row | Compound | transcriptional changes induced by ZIKV infection (RNA-seq) [1] | ZIKV induced growth arrest or apoptosis of hNPCs [2] | cell death rate and total cell number ([2]; ZIKV infected hNPCs, day 6) | ZIKV-induced loss of cell viability ([2]; dose-dependent, compound applied 2 h post infection) | expression of neural progenitor markers SOX2 and NESTIN and differentiation capacity ([2]; hNPCs with or without ZIKV infection treated for 3 days) | cytotoxicity to hNPCs ([2]; highest dose of 100 μM)
1 | CCN(CC)Cc1cc(Nc2ccnc3cc(Cl)ccc23)ccc1O [AQ, amodiaquine dihydrochloride dihydrate] | reversed the transcriptional changes | blocked ZIKV induced growth arrest or apoptosis |  |  |  | 
2 | CN1CCC2=C[C@H](O)[C@H]3OC(=O)c4cc5c(cc4[C@H]3[C@@H]21)OCO5 [HH, hippeastrine hydrobromide] | reversed the transcriptional changes | blocked ZIKV induced growth arrest or apoptosis | comparable to control mock infection conditions | successfully rescued | maintained the expression of neural progenitor markers | no obvious cytotoxicity
